Assay results: patent US12479852B2, “Compounds, compositions, and methods for protein degradation” (DANA-FARBER CANCER INSTITUTE, INC., priority 2019, dated 2025)

Tested on: synovial sarcoma cell lines
Assay: testing against a panel of synovial sarcoma cell lines (antiproliferation)
Format: cell-based
Conditions: FIG. 1

## O=C(CCOCCOCCOCCNc1cccc2c1C(=O)N(C1CCC(=O)NC1=O)C2=O)NCCc1ccc(N2C[C@@H]3C[C@H]2CN3/C=C/C(=O)c2ccccc2O)cc1 (stereo partly drawn) [Compound E1, 3-(2-(2-(2-((2-(2,6-dioxopiperidin-3-yl)-1,3-dioxoisoindolin-4-yl)amino)ethoxy)ethoxy)ethoxy)-N-(4-((1S,4S)-5-((E)-3-(2-hydroxyphenyl)-3-oxoprop-1-en-1-yl)-2,5-diazabicyclo[2.2.1]heptan-2-yl)phenethyl)propanamide]
  antiproliferation effect against synovial sarcoma lines: antiproliferation effect
